Experiment [1] deals with Human osteoblasts (KK-3, 18PDL). As to the kind of experiment: bone formation activity (Ca, P and alkaline phosphatase in human osteoblasts). In kind it is cell-based. The conditions noted are these: 14 days. The protocol:
Measurement of bone formation activity
Human osteoblasts (KK-3, 18PDL) were cultured in an α-MEM containing 10% fetal calf serum. After the growth become stationary, the compound was added in a given concentration in the presence of 2 mM α-glycerophosphate and treated for 14 days. The cell phase was washed with physiological saline, and the alkaline phosphatase activity (ALP) was measured through the absorption of OD415. Then, calcium (Ca) and phosphorus (P) were extracted with a 2N hydrochloric acid and quantitatively determined.

In experiment [2] the test system is L1210 tumor cells. Briefly: anticancer activity (growth of L1210 tumor cells, trypan blue staining of surviving cells). In kind it is cell-based. Particulars: Mus musculus, 48 h, 2.5×10^4 cells/ml, grown for 2 days. The protocol:
Measurement of anticancer activity
Tumor cells were grown in an RPMI 1640 medium containing of 10% fetal calf serum.
The compound was dissolved in 99.5% ethanol, adjusted before use so that the final concentration of ethanol was 0.1% or less, and added to the medium.
The control was 0.1% ethanol, and L1210 tumor cells were inoculated in the medium in a concentration of 2.5×10^4 cells/ml and grown for 2 days. The number of surviving cells were measured by trypan blue staining.

[3] abbreviates: Table 9, 1.0 × 10^-6 M, control 1.15 ± 0.19.
Setting [4] is: Table 9, 1.0 × 10^-6 M, control 2.17 ± 2.56.
Where [5] appears, read: Table 9, 1.0 × 10^-6 M, control 3.83 ± 1.72.
The mark [6] stands for this setting: Table 9, 3.3 × 10^-6, control 1.15 ± 0.19.
[7] abbreviates: Table 9, 3.3 × 10^-6, control 2.17 ± 2.56.
The mark [8] stands for this setting: Table 6, 1.0 × 10^-6, control 0.550 ± 0.040.
Where [9] appears, read: Table 6, 1.0 × 10^-6, control 11.00 ± 1.73.
The mark [10] stands for this setting: Table 6, 2.5 × 10^-7 M, control 0.550 ± 0.040.
Setting [11] is: Table 6, 2.5 × 10^-7 M, control 11.00 ± 1.73.
Setting [12] is: Table 6, 2.5 × 10^-7 M, control 20.00 ± 1.73.

Values after ≈ are worked out from the molar mass of the structure shown.

This note sets out measurements from patent publication US5675031A, “4-hydroxy-2-cyclopentenone derivatives and anticancer agent and bone formation accelerator containing the same” (Teijin Limited, priority 1992, dated 1997).

In the case of `COC(=O)c1ccc(/C=C2/C(=O)C=C[C@@]2(O)CCCCOc2ccccc2)cc1` [drawing 220], the ALP in experiment [1] (setting [3]) was 0.04 ± 0.01 OD415 /dish; in experiment [1] (setting [6]), 0.03 OD415 /dish. The Ca in experiment [1] (setting [4]) stood at 312.17 ± 12.30 μg/dish; in experiment [1] (setting [7]), 328.00 ± 15.90 μg/dish. In experiment [1] (setting [5]), the P is recorded as 170.33 ± 11.60 μg/dish.
Broadly, the IC50 is the concentration that inhibits the measured activity by half. High values mean a need for much substance, low ones inhibition by little substance. In turn, `COC(=O)c1ccc(/C=C2/C(=O)C=C[C@@]2(O)CCCCOc2ccccc2)cc1` [drawing 213] gave an IC50 in experiment [2] of 0.01 µg/mL (≈ 0.0255 µM).
Take `COC(=O)c1ccc(/C=C2/C(=O)C(Cl)=CC2(O)CCCCOc2ccccc2)cc1` (stereo not shown) [drawing 209]: in experiment [2], the IC50 is 0.004 µg/mL (≈ 0.00937 µM).
Same read-out and setting: the same measure for `CN(C)c1ccc(C=C2C(=O)C=CC2(O)CCCCOc2ccccc2)cc1` (stereo not shown): 0.378 µg/mL (≈ 1 µM); for `COC(=O)c1ccc(/C=C2/C(=O)C=C[C@]2(O)CCCCOc2ccccc2)cc1` [drawing 214]: 0.026 µg/mL (≈ 0.0663 µM).
In the case of `COC(=O)c1ccc(/C=C2/C(=O)C=C[C@]2(O)CCCCOc2ccccc2)cc1` [drawing 219], the ALP in experiment [1] (setting [3]) was found to be 0.74 ± 0.06 OD415 /dish; in experiment [1] (setting [6]), 1.79 OD415 /dish. In addition, the Ca is 18.00 ± 8.00 μg/dish in experiment [1] (setting [4]) and 318.50 ± 12.50 μg/dish in experiment [1] (setting [7]). Besides, the P in experiment [1] (setting [5]) turned out to be 13.00 ± 4.69 μg/dish.
As to `COC(=O)c1ccc(/C=C2/C(=O)C=CC2(O)CCCCOc2ccccc2)cc1` (stereo not shown) [drawing 215], the ALP in experiment [1] (setting [8]) is recorded as 0.488 OD415 /dish; in experiment [1] (setting [10]) it was 0.572 ± 0.028 OD415 /dish. In addition, the Ca in experiment [1] (setting [9]) came to 47.00 ± 1.00 μg/dish; in experiment [1] (setting [11]), 22.67 ± 3.51 μg/dish. Also, in experiment [1] (setting [12]), the P was found to be 28.33 ± 2.52 μg/dish.
On to `COC(=O)c1ccc(/C=C2/C(=O)C=C(C)C2(O)CCCCOc2ccccc2)cc1` (stereo not shown) [drawing 208], for which, in experiment [2], half-maximal inhibition (IC50) required 10.8 µg/mL (≈ 26.5 µM).
For the compound `CN(C)c1ccc(/C=C2/C(=O)C(Cl)=CC2(O)CCCCOc2ccccc2)cc1` (stereo not shown) [drawing 217], the P in experiment [1] (Table 7, 10^-6 M, control 0.17 ± 0.29) was 1.72 ± 0.05 μg/dish; in experiment [1] (Table 7, 10^-7 M, control 0.17 ± 0.29) it was 0.33 ± 0.29 μg/dish. Moreover, the Ca in experiment [1] (Table 7, 10^-6 M, control 0.33 ± 0.29) was found to be 23.50 ± 3.77 μg/dish; in experiment [1] (Table 7, 10^-7 M, control 0.33 ± 0.29), 0.0 ± 0 μg/dish. The ALP in experiment [1] (Table 7, 10^-6 M, control 0.826 ± 0.006) is given as 0.503 OD415 /dish; in experiment [1] (Table 7, 10^-7 M, control 0.826 ± 0.006), 0.796 ± 0.047 OD415 /dish.
`COC(=O)c1ccc(/C=C2/C(=O)C=CC2(O)CCCCOc2ccccc2)cc1` (stereo not shown) [drawing 207]: in experiment [2], the IC50 is 0.014 µg/mL (≈ 0.0357 µM).
Regarding `COC(=O)c1ccc(/C=C2/C(=O)C(Cl)=CC2(O)CCCCOc2ccccc2)cc1` (stereo not shown) [drawing 216], the ALP is 0.0 OD415 /dish in experiment [1] (setting [8]) and 0.484 ± 0.078 OD415 /dish in experiment [1] (setting [10]). In addition, the Ca in experiment [1] (setting [9]) was 124.50 ± 2.12 μg/dish; in experiment [1] (setting [11]) it was 37.00 ± 1.00 μg/dish. Also, in experiment [1] (setting [12]), the P is listed as 36.00 ± 1.00 μg/dish.
Take `CN(C)c1ccc(/C=C2/C(=O)C(Cl)=CC2(O)CCCCOc2ccccc2)cc1` (stereo not shown) [drawing 212]: the IC50 in experiment [2] was found to be 0.062 µg/mL (≈ 0.151 µM).
As to `COC(=O)c1ccc(/C=C2/C(=O)C=C(C)C2(O)CCCCOc2ccccc2)cc1` (stereo not shown) [drawing 218], the Ca in experiment [1] (Table 8, 10^-4 M, control 0.33 ± 0.58) stood at 8.133 ± 3.06 μg/dish; in experiment [1] (Table 8, 10^-5 M, control 0.33 ± 0.58), 1.00 ± 0.0 μg/dish. Moreover, the ALP was 0.697 OD415 /dish in experiment [1] (Table 8, 10^-4 M, control 1.684 ± 0.068) and 1.538 ± 0.028 OD415 /dish in experiment [1] (Table 8, 10^-5 M, control 1.684 ± 0.068). The P in experiment [1] (Table 8, 10^-4 M, control 7.67 ± 0.58) stood at 50.33 ± 1.53 μg/dish; in experiment [1] (Table 8, 10^-5 M, control 7.67 ± 0.58), 8.33 ± 1.53 μg/dish.
Regarding `O=C1C=CC(O)(CCCCOc2ccccc2)/C1=C\c1ccncc1` (stereo not shown), in experiment [2], the IC50 stood at 0.021 µg/mL (≈ 0.0626 µM).
